Non-standard residues stand in square brackets, D forms with d. Residues, ends and D or L forms follow the SMILES beside them. Dip = N[C@H](C(=O)O)C(c1ccccc1)c1ccccc1
Experiments:
HL-60/ADR = test: MTS cytotoxicity assay, HL-60/ADR; format: cell-based, human; details: IC50 resistant / IC50 sensitive line; doxorubicin resistance
Protocol: (§1) Tumor cells were plated in 96-well flat-bottom microtitration plates (Nunc, Dutscher, Brumath, France) and incubated at 37° C. for 24 hours before treatment in 190 μl of drug-free culture medium supplemented or not with 10% FBS for adherent or suspension growing cell lines, respectively.
(§2) The adherent cell lines were washed once with 200 μl FBS-free culture medium before treatment. Tumor cells were incubated for 4 hours with 10 concentrations of compounds in ¼ dilution step with a top dose of 400 μM (range 4×10^−4 to 4×10^−10 M), with 1% (final concentration) Triton X-100 as positive control and FBS-free culture medium as negative control. The cells (190 μl) were incubated in a 200 μl final volume of FBS-free culture medium containing test substances at 37° C. under 5% CO2.
(§3) Three independent experiments were performed, each concentration being tested in quadruplicate. Control cells were treated with vehicle alone. At the end of treatments, the cytotoxic activity was evaluated by a MTS assay (see § 3.3.).
(§4) Like MTT, MTS is bioreduced by cells into a formazan product that is directly soluble in culture medium without processing, unlike MTT.
(§5) At the end of the cells treatment, 40 μl of a 0.22 μm filtered freshly combined solution of MTS (20 ml at 2 mg/ml, Ref G1111, Batch 235897, Exp March 2009, Promega, Charbonnières, France) and PMS (1 ml at 0.92 mg/ml, Ref P9625, Batch 065K0961, Sigma) in Dulbecco's Phosphate Buffered Saline (DPBS, Ref 17-513Q, Batch 6MB0152, Cambrex), were added in each well. Culture plates were incubated for 2 h at 37° C. Absorbency (OD) were measured at 490 nm in each well using VICTOR^3™ 1420 multilabeled counter (Wallac, PerkinElmer, Courtaboeuf, France).
(§6) IC50: drug concentration to obtain a 50% inhibition of cell proliferation.
(§7) The dose-response curves were plotted using XLFit 3 (IDBS, United Kingdom). The IC50 determination values were calculated using the XLFit 3 software from semi-log curves. Individual IC50 determination values as well as mean and SD values were generated.
Resistance index was calculated using the following formula: […]
Resistance index was calculated for each compound for each couple of sensitive and resistant cell lines. Individual resistance index was calculated when IC50 values of both sensitive and corresponding resistant cell lines were determined within same experiment. In addition, resistance index was also calculated ratio of mean IC50 values obtained during three independent experiments.

HL-60 = format: cell-based, human; details: 24 h
Protocol: as §1
as §2, with “Tumor cells were incubated for 4 hours with 10 concentrations of compounds in ¼ dilution step with a” left out
as §3, §4, §5, §6, §7

[1] = system: HUV-EC-C normal cell line; format: cell-based, human; details: 24 h
Protocol: as §1
as §2, with “Tumor cells were incubated for 4 hours with 10 concentrations of compounds in ¼ dilution step with a” left out
as §3, §4, §5, §6, §7

IGROV-1 = format: cell-based, human; details: 24 h
Protocol: as §1
as §2, with “Tumor cells were incubated for 4 hours with 10 concentrations of compounds in ¼ dilution step with a” left out
as §3, §4, §5, §6, §7

K-562 = format: cell-based, human; details: 24 h
Protocol: as §1
as §2, with “Tumor cells were incubated for 4 hours with 10 concentrations of compounds in ¼ dilution step with a” left out
as §3, §4, §5, §6, §7

MCF-7 = format: cell-based, human; details: 24 h
Protocol: as §1
as §2, with “Tumor cells were incubated for 4 hours with 10 concentrations of compounds in ¼ dilution step with a” left out
as §3, §4, §5, §6, §7

Raji cell line = format: cell-based, human; details: 4 h
Protocol: (§8) Tumor cells were plated in 96-well flat-bottom microtitration plates (Nunc, Dutscher, Brumath, France) and incubated at 37° C. for 24 hours before treatment in 190 μl of drug-free and FBS-free culture medium.
as §2, with “Tumor” for “The adherent cell lines were washed once with 200 μl FBS-free culture medium before treatment. Tumor”, “[…]” for “4×10^−10”
(§9) Three independent experiments were performed, each concentration being issued from quadruplicate. Control cells were treated with vehicle alone. At the end of treatments, the cytotoxic activity was evaluated by a MTS assay (see § 3.3 below).
as §4, §5
(§10) 4.1. IC50 Data was Determined as in Example 1

U-937 cell line = format: cell-based, human; details: 4 h
Protocol: as §8
as §2, with “Tumor” for “The adherent cell lines were washed once with 200 μl FBS-free culture medium before treatment. Tumor”, “[…]” for “4×10^−10”
as §9, §4, §5, §10

[2] = system: murine A20 B-cell lymphoma; test: Adoptive spleen cell transfer, A20 lymphoma model; format: in vivo, Balb/c mice; details: donors: 1 mg intratumoural once daily for 3 days
Protocol: […] Balb/c mice (n=32) were each inoculated with A20 cells (5 million in 50 μL s.c.) on the abdominal surface. Once tumours had reached 20 mm^2 they were injected with LTX-315 (1 mg) injected intratumourally, once daily for 3 days, in a volume of 50 μL. Tumour size (mm^2) and body weight were subsequently monitored and a further injection of LTX-315 was given if any tumour re-growth was observed. Subsequently, mice showing complete tumour regression were sacrificed and used as donors for transfer of splenocytes while naive donor mice were used as controls. Spleens from donor mice were excised and cells isolated. Naive receiver mice were irradiated and divided into 2 groups. Group 1 received isolated splenocytes from cured mice, whereas group 2 received isolated splenocytes from naive mice. Freshly prepared cells were injected (20×106 per 100 μl) via the tail vein. Twenty four hours later receiver mice were inoculated with 5 million murine A20 B-cell lymphoma cells on the abdominal surface as described above. Tumour size and body weight were monitored until the maximum tumour burden of ˜125 mm^2 was reached, or a serious adverse events occurred (i.e. wound formation due to tumour tissue necrosis) at which point mice were sacrificed.

A375 cells [3] = test: Bright field confocal live cell imaging; format: cell-based, human; details: LTX-315 at IC-50 value, majority of the cells
Protocol: A375 cells were seeded at 10,000 cells/well in a complete media in Nunc Lab-Tec 8-wells chambered covered glass (Sigma) precoated with 25 μg/ml human fibronectin (Sigma) that were allowed to adhere overnight. Cells were washed twice with a serum-free RPMI, treated with peptide dissolved in RPMI and investigated using Bright on a Leica TCS SP5 confocal microscope, with a 63×/1.2 W objective. The microscope was equipped with an incubation chamber with CO2 and temperature control.

A375 cells [4] = test: Release of ATP (luciferase assay); format: cell-based, human; details: luciferase detection; concentration-dependent
Protocol: The supernatant of LTX-315-treated A375 cells was analyzed using an Enliten ATP luciferase assay kit (Promega, USA). Cells were then seeded as with an ROS assay, and treated with LTX-315 in different incubation times, from 1 to 15 minutes with two parallels, which was then conducted three times. Negative controls were untreated A375 cells exposed to serum-free media alone. Samples were diluted at 1:50 and 1:100, and analyzed with a Luminoscan RT luminometer according to the manufacturer's protocol.

NCCCC[C@H](NC(=O)[C@@H](NC(=O)[C@H](Cc1c[nH]c2ccccc12)NC(=O)[C@H](CCCCN)NC(=O)[C@H](CCCCN)NC(=O)[C@H](Cc1c[nH]c2ccccc12)NC(=O)[C@H](Cc1c[nH]c2ccccc12)NC(=O)[C@H](CCCCN)NC(=O)[C@@H](N)CCCCN)C(c1ccccc1)c1ccccc1)C(N)=O [LTX-315, K-K-W-W-K-K-W-Dip-K-NH2] (H-KKWWKKW[Dip]K-NH2)
Resistance index (RI), HL-60/ADR (HL-60/ADR): 1.45
IC50 (HL-60): 2.07 µM
IC50 [1]: 23 µM
IC50 (IGROV-1): 6.37 µM
IC50 (K-562): 3.27 µM
IC50 (MCF-7): 1.94 µM
IC50 (Raji cell line): 4.93 ± 1.03 µM
IC50 (U-937 cell line): 1.15 ± 0.42 µM
Tumour growth in irradiated recipients of splenocytes from LTX-315-cured donors versus naive donors [2]: Inhibition of tumour growth was observed
Time to rounding up and total collapse of the cells (A375 cells [3]): 15 to 60 min
ATP release into supernatant (A375 cells [4]): ATP was detected in the supernatant as early as after 5 minutes of treatment
